The values below come from PubChem BioAssay (NCI).

Some test systems named below: U251 CNS; CCRF-CEM leukemia; IGROV1 ovarian; NCI-H522 lung; RXF 393 renal; 786-0 renal; NCI-H23 lung.
Holding throughout (experiment): inhibition of tumour cell growth, NCI panel, 48 h

SMILES strings stand for the structures.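 Step 1: Grow cells in 96-well plates. Step 2: Expose to compound for 48 hours at 5 concentrations. Step 3: Interpolate endpoints linearly; if unreached, use highest concentration. At the GI50, growth is halved. TGI: concentration producing complete growth inhibition.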 A value given as a limit tells only on which side of the number the result lay.

For `NC(=O)c1ccc2nc3c(n2c1)C(=O)C(=O)c1ccccc1-3`, the GI50 in the test with U251 CNS was 0.296 µM; in the test with CCRF-CEM leukemia it was 0.931 µM; in the test with IGROV1 ovarian it was 1.63 µM; in the test with NCI-H522 lung, 0.679 µM; in the test on RXF 393 renal, 1.64 µM; in the test on 786-0 renal it was 1.63 µM. Also, the GI50 in the test with NCI-H23 lung is 0.42 µM. The TGI with U251 CNS came to 0.928 µM; with CCRF-CEM leukemia it was 5.42 µM; in the test on IGROV1 ovarian it was 3.34 µM; in the test on NCI-H522 lung it was 2.18 µM; with RXF 393 renal, 3.02 µM; in the test with 786-0 renal it was 2.99 µM. This compound also registered a TGI in the test with NCI-H23 lung of 2.8 µM.

Consider `OCc1ccc(N(CCN2CCCC2)Cc2ccc(F)cc2)cc1Cl`, for which the GI50 was 15.5 µM with U251 CNS; 23.8 µM in the test with CCRF-CEM leukemia; 3.27 µM with IGROV1 ovarian; 16.8 µM in the test on NCI-H522 lung; 23.3 µM in the test on RXF 393 renal; 21 µM in the test with 786-0 renal. Further, in the test on NCI-H23 lung, the GI50 was 32.4 µM. For the same compound, the TGI stood at 32.4 µM in the test on U251 CNS; 91.5 µM with CCRF-CEM leukemia; 16.8 µM in the test on IGROV1 ovarian; 34.4 µM in the test on NCI-H522 lung; 67.1 µM with RXF 393 renal; 66 µM in the test on 786-0 renal. The same compound showed a TGI in the test on NCI-H23 lung above 100 µM.

Take `O=[N+]([O-])c1ccc(Cl)cc1N/N=C/c1cccc2cccnc12`: the TGI in the test on U251 CNS, with CCRF-CEM leukemia, in the test on IGROV1 ovarian, with NCI-H522 lung, in the test with RXF 393 renal and with 786-0 renal was above 100 µM each time. This compound showed a TGI in the test on NCI-H23 lung above 100 µM.

As for `NC1=Nc2cc(OCCCN3Cc4ccccc4C3)c(OCC3CC3)cc2C12CCCC2`, the GI50 with U251 CNS was 1.8 µM; in the test with CCRF-CEM leukemia, 2.45 µM; in the test with IGROV1 ovarian, 4.17 µM; in the test on NCI-H522 lung, 2.25 µM; with RXF 393 renal, 1.34 µM; with 786-0 renal, 1.69 µM. Also, in the test on NCI-H23 lung, the GI50 was 3.61 µM. Moreover, the TGI with U251 CNS turned out to be 3.88 µM; with CCRF-CEM leukemia it was 9.26 µM; with IGROV1 ovarian, 17.2 µM; in the test on NCI-H522 lung, 4.87 µM; in the test with RXF 393 renal it was 3.58 µM; with 786-0 renal, 3.77 µM. Moreover, the TGI in the test on NCI-H23 lung is 12.9 µM.

In the case of `COc1cc(/C=C2\C(=O)Nc3cccc(Cl)c32)cc(OC)c1OC`, the GI50 is 41 µM in the test with U251 CNS; 0.0529 µM in the test with CCRF-CEM leukemia; above 100 µM in the test with IGROV1 ovarian; above 100 µM with NCI-H522 lung; 8.79 µM in the test with RXF 393 renal; 41.8 µM with 786-0 renal. Also, the GI50 in the test with NCI-H23 lung is above 100 µM. For the same compound, the TGI was above 100 µM in the test with U251 CNS; 0.527 µM with CCRF-CEM leukemia; above 100 µM in the test on IGROV1 ovarian; above 100 µM in the test on NCI-H522 lung; 36.9 µM in the test on RXF 393 renal; above 100 µM in the test on 786-0 renal. In the test with NCI-H23 lung, this compound returned a TGI above 100 µM.

With `COc1cc2c(cc1OCCCCOc1ccc(-c3nc4ccccc4s3)cc1)N=C[C@@H]1CCCN1C2=O`, the GI50 was 0.534 µM with U251 CNS; 0.456 µM in the test with CCRF-CEM leukemia; 1.28 µM with IGROV1 ovarian; 0.565 µM with NCI-H522 lung; 0.19 µM with RXF 393 renal; 0.58 µM with 786-0 renal. Moreover, the GI50 in the test with NCI-H23 lung is 1.15 µM. For the same compound, the TGI with U251 CNS was 1.85 µM; in the test with CCRF-CEM leukemia, 2.38 µM; with IGROV1 ovarian, 6.08 µM; with NCI-H522 lung it was 1.93 µM; with RXF 393 renal, 0.443 µM; in the test with 786-0 renal, 1.16 µM. Moreover, in the test on NCI-H23 lung, the TGI is 3.56 µM.

Turning to `O=C(Nc1ccccc1)Nc1cccc(Oc2nnc(Cl)c3ccccc23)c1`, the GI50 in the test with U251 CNS is 2.14 µM; in the test with CCRF-CEM leukemia, 4.44 µM; in the test with IGROV1 ovarian, 3.32 µM; with NCI-H522 lung, 2.8 µM; in the test on RXF 393 renal it was 2.69 µM; in the test with 786-0 renal, 3.6 µM. Moreover, the GI50 in the test on NCI-H23 lung was 3.72 µM. Also, the TGI is 5.2 µM with U251 CNS; above 25 µM in the test on CCRF-CEM leukemia; 7.92 µM in the test on IGROV1 ovarian; 9.68 µM with NCI-H522 lung; 6.24 µM in the test with RXF 393 renal; 8.18 µM in the test on 786-0 renal. The compound further came in with a TGI with NCI-H23 lung of 9.44 µM.

As to `O=C1NN(c2ccccc2)C(=O)/C1=C/c1ccc(Br)o1`, the GI50 is 1.57 µM in the test with U251 CNS; 5.23 µM in the test with CCRF-CEM leukemia; 5.19 µM in the test on IGROV1 ovarian; 7.92 µM with NCI-H522 lung; 1.02 µM in the test with RXF 393 renal; 19.8 µM in the test on 786-0 renal. Moreover, the GI50 with NCI-H23 lung was 15.6 µM. Besides, the TGI came to 19.8 µM with U251 CNS; 19.8 µM in the test on CCRF-CEM leukemia; 35 µM in the test on IGROV1 ovarian; 36.8 µM with NCI-H522 lung; 2.04 µM in the test with RXF 393 renal; 53.2 µM in the test on 786-0 renal. For the same compound, the TGI in the test on NCI-H23 lung is 36.1 µM.

`CC(C)c1ccc(NC(=S)NC(=O)c2ccccc2)cc1`: the TGI in the test with U251 CNS was found to be 80.1 µM; in the test with CCRF-CEM leukemia, 49.6 µM; with IGROV1 ovarian, 68.4 µM; in the test with NCI-H522 lung, 37.5 µM; in the test on RXF 393 renal it was 44.9 µM; with 786-0 renal, 46.4 µM. Moreover, in the test with NCI-H23 lung, the TGI worked out at 68 µM.

Turning to `CN1CCN(c2ccc(C(=O)Nc3cc(-c4cccc(NS(=O)(=O)c5ccccc5)c4)[nH]n3)cc2)CC1`, the GI50 with U251 CNS was 2.87 µM; with CCRF-CEM leukemia, 3.28 µM; in the test with IGROV1 ovarian it was 2.64 µM; in the test with NCI-H522 lung, 3.29 µM; in the test on RXF 393 renal, 2.55 µM; in the test with 786-0 renal, 4.8 µM. The GI50 with NCI-H23 lung was 11.6 µM. Moreover, the TGI in the test with U251 CNS is 18.7 µM; in the test on CCRF-CEM leukemia, 42.3 µM; in the test with IGROV1 ovarian, 21.9 µM; with NCI-H522 lung, 13.2 µM; in the test on RXF 393 renal it was 12.5 µM; in the test on 786-0 renal, 24.2 µM. Besides, the TGI in the test on NCI-H23 lung came out at 35.2 µM.

In the case of `O=C1CCS/C(=N\S(=O)(=O)c2ccc(N3N=C4c5ccccc5CC4C3c3cccs3)cc2)N1C(=O)c1ccccc1` (stereo not given), the GI50 in the test with U251 CNS was 4.5 µM; in the test on CCRF-CEM leukemia, 15 µM; in the test with IGROV1 ovarian, 14.5 µM; in the test with NCI-H522 lung, 14.4 µM; in the test on RXF 393 renal, 6.31 µM; in the test on 786-0 renal, 14.1 µM. In addition, in the test with NCI-H23 lung, the GI50 is 17.2 µM. The TGI amounted to 17.4 µM with U251 CNS; 42.7 µM with CCRF-CEM leukemia; 29.9 µM in the test on IGROV1 ovarian; 65.1 µM in the test with NCI-H522 lung; 33 µM in the test with RXF 393 renal; 27.2 µM in the test with 786-0 renal. Moreover, the TGI in the test with NCI-H23 lung came out at 41.5 µM.
